Assay in all cases: Live cell target engagement (NanoBRET) in HEK293 cells
What all share (type): cell-based
(In BRET a luciferase serves as donor, and the signal depends on an acceptor being close.)

Assay [1] concerns the target AKT2 (Homo sapiens (Human), UniProt P31751). As to conditions: HEK293, 2 hours at 37° C.
For assay [2], the target named is AKT1 E17K (Homo sapiens (Human), UniProt P31749, E17K). The following applies: for IC50: HEK293, 2 hours at 37° C.
In assay [3] the target is AKT1 WT (Homo sapiens (Human), UniProt P31749). The following applies: HEK293, 2 hours at 37° C.
AKT1 WT, sequence (P31749 whole entry): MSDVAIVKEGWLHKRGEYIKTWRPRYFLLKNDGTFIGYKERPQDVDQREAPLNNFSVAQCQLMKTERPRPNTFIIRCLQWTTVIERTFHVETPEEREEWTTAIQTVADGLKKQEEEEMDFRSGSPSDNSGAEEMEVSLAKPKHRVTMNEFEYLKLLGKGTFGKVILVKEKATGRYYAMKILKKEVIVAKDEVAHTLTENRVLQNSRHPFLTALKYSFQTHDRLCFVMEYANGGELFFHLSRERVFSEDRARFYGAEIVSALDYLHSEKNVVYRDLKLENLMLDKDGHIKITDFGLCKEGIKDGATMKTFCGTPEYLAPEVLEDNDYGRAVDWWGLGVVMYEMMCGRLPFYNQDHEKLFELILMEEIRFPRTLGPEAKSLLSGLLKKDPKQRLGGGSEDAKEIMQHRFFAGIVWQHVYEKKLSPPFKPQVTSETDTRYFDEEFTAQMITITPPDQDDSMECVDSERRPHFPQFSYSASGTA

AKT1 E17K, sequence (P31749 whole entry E17K): as the sequence (P31749 whole entry) above, with E17K counted along it
AKT2, sequence (P31751 whole entry): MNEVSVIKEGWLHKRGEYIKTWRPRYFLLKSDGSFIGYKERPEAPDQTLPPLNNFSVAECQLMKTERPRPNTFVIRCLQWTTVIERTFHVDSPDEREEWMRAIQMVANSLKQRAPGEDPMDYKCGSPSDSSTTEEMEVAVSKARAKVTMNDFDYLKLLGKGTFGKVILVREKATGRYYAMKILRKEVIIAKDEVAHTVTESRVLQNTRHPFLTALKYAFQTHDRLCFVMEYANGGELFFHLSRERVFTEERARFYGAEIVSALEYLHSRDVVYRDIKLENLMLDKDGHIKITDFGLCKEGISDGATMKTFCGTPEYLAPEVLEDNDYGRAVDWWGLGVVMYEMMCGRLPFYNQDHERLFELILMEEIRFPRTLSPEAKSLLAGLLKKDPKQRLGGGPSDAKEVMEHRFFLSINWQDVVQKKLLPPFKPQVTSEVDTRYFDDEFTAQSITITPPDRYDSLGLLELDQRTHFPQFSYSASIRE

In assay [1], `COc1c(CCNCc2ccc(-n3c(-c4cccnc4N)nc4ccc(-c5ccccc5)nc43)cc2)ccc(C=O)c1O` [Compound 76, 4-{2-[({4-[2-(2-aminopyridin-3-yl)-5-phenylimidazo[4,5-b]pyridin-3-yl]phenyl}methyl)amino]ethyl}-2-hydroxy-3-methoxybenzaldehyde] came in with a half-maximal inhibitory concentration (IC50) of 100 to 500 nM. Also, in assay [2], the “AKT1 E17K IC50: Selectivity vs AKT1 WT” value worked out at 1.6, the “AKT1 E17K IC50: Selectivity vs AKT2” value stood at 4.7 and the IC50 fell in the range of 100 to 500 nM. Besides, the 50% inhibitory concentration (IC50) in assay [3] was 100 to 500 nM.

For the molecule `Nc1ncccc1-c1nc2ccc(-c3ccccc3)nc2n1-c1ccc(CNC(=O)Cc2cnc(C=O)c(O)c2)cc1` [Compound 77, N-(4-(2-(2-aminopyridin-3-yl)-5-phenyl-3H-imidazo[4,5-b]pyridin-3-yl)benzyl)-2-(6-formyl-5-hydroxypyridin-3-yl)acetamide], the results for the half-maximal inhibitory concentration (IC50) in assay [1], in assay [2] and in assay [3] were above 500 nM, below 100 nM and 100 to 500 nM, respectively. For the same molecule, the “AKT1 E17K IC50: Selectivity vs AKT1 WT” value in assay [2] came out at 4.3. In addition, the “AKT1 E17K IC50: Selectivity vs AKT2” value in assay [2] was determined as 39.

On to `Nc1ncccc1-c1nc2cccnc2n1-c1ccc(CNC(=O)C(F)(F)c2ccc(C=O)c(O)c2)cc1` [Compound 78, N-(4-(2-(2-aminopyridin-3-yl)-3H-imidazo[4,5-b]pyridin-3-yl)benzyl)-2,2-difluoro-2-(4-formyl-3-hydroxyphenyl)acetamide], for which, in assay [1], the IC50 was above 500 nM. In assay [2], the “AKT1 E17K IC50: Selectivity vs AKT1 WT” value is recorded as 2.2, the “AKT1 E17K IC50: Selectivity vs AKT2” value came out at 43 and the IC50 is below 100 nM. The IC50 in assay [3] was in the range of 100 to 500 nM.

Take `Nc1ncccc1-c1nc2ccc(-c3cccnc3)nc2n1-c1ccc(CNC(=O)Cc2ccc(C=O)c(O)c2F)cc1` [Compound 79, N-({4-[2-(2-aminopyridin-3-yl)-5-(pyridin-3-yl)imidazo[4,5-b]pyridin-3-yl]phenyl}methyl)-2-(2-fluoro-4-formyl-3-hydroxyphenyl)acetamide]: the half-maximal inhibitory concentration (IC50) is above 500 nM in assay [1], below 100 nM in assay [2] and below 100 nM in assay [3]. The “AKT1 E17K IC50: Selectivity vs AKT1 WT” value in assay [2] amounted to 4.4. Also, in assay [2], the “AKT1 E17K IC50: Selectivity vs AKT2” value was 88.

Turning to `Nc1ncccc1-c1nc2cccnc2n1-c1ccc(CNCCc2ccc(C=O)c(C(F)F)c2)cc1` [Compound 80, 4-{2-[({4-[2-(2-aminopyridin-3-yl)imidazo[4,5-b]pyridin-3-yl]phenyl}methyl)amino]ethyl}-2-(difluoromethyl)benzaldehyde], the half-inhibitory concentration (IC50) in assay [1] is above 500 nM; in assay [2], 100 to 500 nM; in assay [3] it was 100 to 500 nM. In addition, in assay [2], the “AKT1 E17K IC50: Selectivity vs AKT1 WT” value was 0.47. The “AKT1 E17K IC50: Selectivity vs AKT2” value in assay [2] worked out at 2.5.

`Nc1ncccc1-c1nc2ccc(-c3ccccc3)nc2n1-c1ccc(CNc2cc(-c3ccc(O)c(C=O)c3)ccn2)cc1` [Compound 81, 5-(2-((4-(2-(2-aminopyridin-3-yl)-5-phenyl-3H-imidazo[4,5-b]pyridin-3-yl)benzyl)amino)pyridin-4-yl)-2-hydroxybenzaldehyde] yielded a concentration for half-maximal inhibition (IC50) in assay [1] of 100 to 500 nM. In assay [2], the “AKT1 E17K IC50: Selectivity vs AKT1 WT” value turned out to be 0.51, the “AKT1 E17K IC50: Selectivity vs AKT2” value worked out at 1.7 and the 50% inhibitory concentration (IC50) was in the range of 100 to 500 nM. In assay [3], the IC50 fell in the range of 100 to 500 nM.

Take `Nc1ncccc1-c1nc2cccnc2n1-c1ccc(CNC(=O)C2(c3ccc(C=O)c(O)c3)CC2)cc1` [Compound 82, N-(4-(2-(2-aminopyridin-3-yl)-3H-imidazo[4,5-b]pyridin-3-yl)benzyl)-1-(4-formyl-3-hydroxyphenyl)cyclopropane-1-carboxamide]: the IC50 in assay [1] was above 500 nM. In assay [2], the “AKT1 E17K IC50: Selectivity vs AKT1 WT” value turned out to be 29, the “AKT1 E17K IC50: Selectivity vs AKT2” value was above 400 and the half-maximal inhibitory concentration (IC50) is below 100 nM. Moreover, the half-inhibitory concentration (IC50) in assay [3] is above 500 nM.

Broadly, the IC50 is the concentration that inhibits the measured activity by half.

The values above are taken from patent US20250115600A1, “COVALENT MODIFIERS OF AKT1 AND USES THEREOF” (Terremoto Biosciences, Inc., priority 2022, published 2025).
